Measured values published in patent EP2455080A1, “S1P1 receptor agonists for use in the treatment of multiple sclerosis” (Almirall, S.A., priority 2010, dated 2012).

Experiments:
S1P1 receptor = S1P1 receptor (Homo sapiens, UniProt P21453); assay: 35S-GTPyS binding assay; type: biochemical; conditions: membranes, 90 min at room temperature
Method: The effect of the compounds was measured using a 35S-GTPyS binding assay. Briefly, membranes were incubated in a buffer containing 20 mM HEPES pH 7.4, 100 mM NaCl, 10 mM MgCl2, 10µM GDP, 50µg/ml saponin and 0.2% fatty acid-free BSA at various concentrations (0.1nM-10µM) and 0.1nM 35S-GTPyS. 10µM […] was used as 100% maximum efficacy. The assay was incubated for 90 min at room temperature with gentle mixing, and terminated by filtrating the reaction mixture through GF/C filter plates using the Manifold Filtration System. The filters were immediately washed with sodium phosphate pH 7.4 buffers. After drying the filter plates scintillant liquid were added to each well and 35S-GTPyS binding was measured on a Trilux Scintillation Counter.

in vivo = conditions: Wistar, rat, iv, 1 mg/kg
Method: Rats were administered with 1 mg/kg of test compounds by intraveneous route to Wistar rats. Blood samples were collected from retroorbital plexus at several time points after administration and plasma levels of compounds were quantified by MS-HPLC.

[1] = Acute hepatotoxicity assay: plasma liver markers (ALT, AST, TBIL) in mice; type: in vivo, Swiss mice; conditions: for ALT / AST / TBil: plasma, 24 h after single intraperitoneal administration; for hepatotoxicity: single intraperitoneal administration, liver markers 24 h later, compared to vehicle-treated group
Method: Acute hepatotoxicity assays were performed in Swiss mice. Animals received a single administration of either vehicle, or Fingolimod or a compound of the present invention (compounds from the list indicated previously) by intraperitoneal route. Twenty-four hours later, animals were sacrificed and the levels of liver markers ALT (alanine aminotransferase), AST (aspartate aminotransferase), and TBIL (total bilirubin) in plasma were determined. An increase in liver markers in this model indicates the potential of that compound to cause liver toxicity in humans at lower doses following longer exposures. Table 2: Plasma levels of liver markers of mice 24 h after treatment with either vehicle or test compounds No.142, No.171 or fingolimod.

lymphocytes in blood = assay: Recovery of lymphopenia in rats after a single oral administration; type: in vivo; conditions: Wistar rats, single oral dose that caused maximal lymphopenia
Method: Test compounds were administered by oral route to Wistar rats at a dose of each compound that caused maximal lymphopenia. At several times after administration, animals were anestesized and blood extracted from retroorbital plexus and collected into heparinized tubes. Total lymphocyte numbers were determined using a Sysmex K-800 haemocytometer. [formula]

S1P1 receptor, sequence (P21453 whole entry): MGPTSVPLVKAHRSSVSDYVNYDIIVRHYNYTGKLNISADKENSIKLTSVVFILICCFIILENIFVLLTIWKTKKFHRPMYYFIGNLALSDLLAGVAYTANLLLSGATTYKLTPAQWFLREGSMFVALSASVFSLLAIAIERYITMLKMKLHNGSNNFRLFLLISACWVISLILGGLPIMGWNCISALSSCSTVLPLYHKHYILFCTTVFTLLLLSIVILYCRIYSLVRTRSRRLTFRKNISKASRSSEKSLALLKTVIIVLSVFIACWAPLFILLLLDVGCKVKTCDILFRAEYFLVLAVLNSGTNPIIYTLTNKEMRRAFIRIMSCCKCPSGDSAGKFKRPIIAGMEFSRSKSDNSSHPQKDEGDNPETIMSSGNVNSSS

| EC50 (S1P1 receptor) | AUC(0-t) (in vivo) | Cmax (in vivo) | Tmax (in vivo) | half-life (in vivo) | SMILES | ALT ([1]; 100 mg/kg) | AST ([1]; 100 mg/kg) | TBil ([1]; 100 mg/kg) | hepatotoxicity [1] | time after administration to recover lymphocytes in blood (lymphocytes in blood) | ALT ([1]; 30 mg/kg) | AST ([1]; 30 mg/kg) | TBil ([1]; 30 mg/kg) |
| --- | --- | --- | --- | --- | --- | --- | --- | --- | --- | --- | --- | --- | --- |
| 0.0087 µM | 2630 ng·h/mL | 824 ng/mL | 6 min | 3.5 h | Cc1cc(-c2noc(-c3nn(C)c4c3CCC(C)(C)C4)n2)cc(C)c1CCN1CCC(C(=O)O)CC1 [Compound 142, 1-(2-{2,6-dimethyl-4-[5-(1,6,6-trimethyl-4,5,6,7-tetrahydro-1H-indazol-3-yl)-1,2,4-oxadiazol-3-yl]phenyl}ethyl)piperidine-4-carboxylic acid] | 45 ± 5 IU/L | 87 ± 9 IU/L | 0.3 ± 0.1 mg/dL | lack of hepatotoxicity |  |  |  |  |
| 0.0188 µM | 6230 ng·h/mL | 986 ng/mL | 6 min | 8.2 h | Cn1nc(-c2nc(-c3ccc(CCN4CCC(C(=O)O)CC4)c(C(F)(F)F)c3)no2)c2c1CC(C)(C)CC2 [Compound 171, 1-(2-{2-(trifluoromethyl)-4-[5-(1,6,6-trimethyl-4,5,6,7-tetrahydro-1H-indazol-3-yl)-1,2,4-oxadiazol-3-yl]phenyl}ethyl)piperidine-4-carboxylic acid] | 42 ± 13 IU/L | 66 ± 7 IU/L | 0.5 ± 0.04 mg/dL | lack of hepatotoxicity |  |  |  |  |
|  | 279 ng·h/mL | 50.5 ng/mL | 6 min | 26.1 h | CCCCCCCCc1ccc(CCC(N)(CO)CO)cc1 [Fingolimod, reference compound] | 355 ± 60 IU/L | 589 ± 73 IU/L | 0.16 ± 0.02 mg/dL | high hepatotoxicity | 144 h | 59 ± 62 IU/L | 354 ± 70 IU/L | 0.12 ± 0.01 mg/dL |
